Experimental data reported in paper PMC10525445, “Antitrypanosomal Activity of 1,2,3-Triazole-Based Hybrids Evaluated Using In Vitro Preclinical Translational Models” (Biology, 2023).
Like-named read-outs stand apart in the source and are kept apart here.

Tests used:
[1] = Cytotoxicity on VERO cell monolayers (CellTiter Glo, 72 h); format: cell-based; conditions: African green monkey, VERO cell monolayers, ATP level, read-out: Cytotoxicity VERO Cells CC50
Description: VERO cells (Rio de Janeiro Cell Bank code 0245) were cultivated in RPMI 1640 medium supplemented with 10% fetal bovine serum (FBS) at 37 °C in a humidified atmosphere of 5% CO2. Confluent monolayers were dissociated with trypsin-EDTA solution (0.025%), and isolated cells were seeded on culture plates or flasks, depending on the experimental assay. The VERO cell cultures were used in cytotoxicity and phenotypic screening assays and for obtaining culture-derived trypomastigotes. The toxic effect of the triazole series was evaluated on VERO cell monolayers. After seeding for 24 hours, VERO cells were treated for 72 h at 37 °C with the 1,2,3-triazole derivatives and Bz, the reference drug, with a range of concentration from 15.62 to 500 µM. Controls were performed with a non-toxic concentration of dimethyl sulfoxide (DMSO; ≤0.1%) used in the experimental assays. Cell viability was determined by measuring ATP level using a CellTiter Glo kit. The luminescence read was performed using a Glomax microplate reader (Promega Corporation, Madison, WI, EUA). The cytotoxicity concentration 50 (CC50), the drug concentration that reduces cell viability by 50%, was calculated using linear regression. […] Cultures were exposed for 72 h to compound concentrations up to 500 µM, following the protocol mentioned above. At least 3 independent assays were performed in duplicate.

[2] = system: VERO cells infected with Silvio X10/7; set-up: method as in PMID 30001347; conditions: cited from earlier work
[3] = system: T. cruzi (Dm28c-Luc)-infected VERO cells; test: Short-term washout assay (3 days treatment, 3 days without compound); format: cell-based, Trypanosoma cruzi; conditions: 100 µM
Description: (§1) A washout assay was performed to evaluate the capacity of the promising candidates to eliminate all parasites. Thus, VERO cells, seeded in 96-well plates at a density of 1.5 × 10^4 cells/well, were infected with T. cruzi (Dm28c-Luc) at a 10:1 parasite–host cell ratio (24 h). Two treatment schedules were performed: 3 days with 30, 50, and 100 µM concentrations and 10 days with 30 and 60 times the IC50 concentrations. After treatment, the cultures were washed with PBS and kept for the same period in RPMI 1640 medium supplemented with 10% FBS without compound pressure. The culture medium was changed every 3 or 4 days during the time course, and the supernatant was harvested for luminescence reading after luciferin (300 µg/mL) addition. At the endpoint, the monolayers were also evaluated for parasite load. The luminescent signal was read using a Glomax reader. Bz (100 µM) and DMSO (≤1%) were used as positive and negative controls, respectively.

[4] = system: T. cruzi (Dm28c-Luc)-infected VERO cells; test: Long-term washout assay (10 days treatment, 10 days without compound); format: cell-based, Trypanosoma cruzi; conditions: 10 days treatment (30 or 60 times IC50; Bz 100 µM) + 10 days without compound
Description: as §1

[5] = system: intracellular amastigote forms of T. cruzi (Dm28c-Luc); test: Activity against intracellular amastigotes in infected VERO cells (72 h); format: cell-based, Trypanosoma cruzi; conditions: for Intracellular Amastigotes SI: SI = CC50 of VERO cells/IC50 of intracellular amastigotes; for IC50 / IC90: Trypanosoma cruzi, infected VERO cells, 72 h, mean ± SD; for IC50: read-out: Trypanocidal Activity Intracellular Amastigotes IC50; for IC90: read-out: Trypanocidal Activity Intracellular Amastigotes IC90
Description: (§2) A drug screen was carried out with Trypanosoma cruzi clone Dm28c genetically modified to express luciferase (Dm28c-luc), kindly provided by Dr. Cristina Henriques. The genetically modified T. cruzi clone Dm28c (Dm28c-Luc) has the firefly luciferase gene integrated into the genome, stably expressing the luminescent enzyme. The bioluminescent signal, proportional to the number of parasites, is produced by adding a D-luciferin substrate. Trypomastigotes were harvested from supernatants of VERO cell cultures, infected at a ratio of 10:1 parasite/host cells, 4 days post-infection (4 dpi). Parasites were used for phenotypic drug screening procedures. Luminescent parasites are a reliable and sensitive tool that allows precise quantification of parasite load. The use of genetically modified organisms was approved under license CQB 105/99.
Activity against intracellular amastigotes was determined in cultures of VERO cells infected by T. cruzi (24 h), as previously described. Briefly, infected cultures were treated for 72 h at 37 °C with different concentrations of triazole derivatives (0.04–100 µM). Then, the culture supernatant was removed, and the viability of the intracellular parasites was evaluated after adding luciferin (300 µg/mL) to the cell monolayer followed by reading using the microplate reader. Anti-T. cruzi activity (IC50 and IC90) and SI values were determined. All experimental assays were performed at least 3 times in duplicate.

[6] = system: trypomastigote forms of T. cruzi (Dm28c-Luc); test: Trypanocidal activity against trypomastigotes (luciferase luminescence, 24 h); format: cell-based, Trypanosoma cruzi; conditions: for IC90 / IC50: Trypanosoma cruzi, Dm28c-Luc, 24 h
Description: as §2
All triazole analogs were analyzed for their biological activity against trypomastigote and intracellular amastigote forms of T. cruzi (Dm28c-Luc). Trypomastigotes (1.0 × 10^6 parasites/well) were incubated for 24 h at 37 °C with triazole derivatives and Bz at concentrations ranging from 0.04 to 100 µM. Luciferin (300 µg/mL), a luciferase substrate, was added to parasite suspensions to evaluate trypomastigotes viability. The luminescent signal was measured using a Glomax microplate reader. A maximal DMSO concentration (0.1%) was used as the negative control. The inhibitory concentration 50 (IC50) and 90 (IC90) against T. cruzi, which reduces the number of parasites by 50% and 90%, respectively, was calculated using linear regression. The selectivity index (SI), a ratio that measures the window between toxicity in mammalian cells and anti-T. cruzi activity (SI = CC50/IC50), was also determined.

[7] = mean ± SD, read-out: Trypanocidal Activity Trypomastigotes IC50

With `O=C(Cn1ccnc1[N+](=O)[O-])NCc1ccccc1` [Bz, benznidazole, reference compound] as the molecule, how does the CC50 at 72 h [1] read?
Its CC50 at 72 h is > 500 µM.

And the relapse ([2]; 12.5 to 50 times EC50 for 8 days)?
The relapse was “did not prevent relapse”.

And the recrudescence ([2]; 16 days of treatment with 25 to 50 times EC50, followed for 60 days)?
Its recrudescence is “lack of recrudescence”.

And the “effect on parasite load / infection progression” value [3]?
Its value is “potentially inhibited the infection progression”.

And the “infection reactivation / sterile cure” value [4]?
The value was “failed to induce a sterile cure”.

And the “Intracellular Amastigotes SI” value [5]?
Its value is >107.

What about the IC50 [5] of the same molecule?
Its IC50 is 4.67 ± 0.22 µM.

And the IC90 [5]?
The IC90 was 21.7 ± 2.37 µM.

What about the IC90 ([6]; mean ± SD) of the same molecule?
The IC90 was > 100 µM.

What about the IC50 [6, 7] of the same molecule?
The IC50 was 22.8 ± 4.12 µM.

And the IC50 ([6]; read-out: pIC50 against trypomastigotes (converted))?
Its IC50 is 22.9 µM.

With `Cc1ccccc1-n1cc(C(C)(C)O)nn1` [Triazole 1a, 2-(1-(o-Tolyl)-1H-1,2,3-triazole-4-yl)propan-2-ol] as the molecule, how does the CC50 at 72 h [1] read?
The CC50 at 72 h was > 500 µM.

And the IC50 [5]?
Its IC50 is > 100 µM.

And the IC90 ([6]; mean ± SD)?
The IC90 was > 100 µM.

What about the IC50 [6, 7] of the same molecule?
Its IC50 is > 100 µM.

Which CC50 at 72 h [1] does the source give for `Clc1ccc(-n2cc(-c3ccccc3)nn2)cc1` [Triazole 1b, 1-(4-Chlorophenyl)-4-phenyl-1H-1,2,3-triazole] here?
The CC50 at 72 h was > 500 µM.

What about the IC50 [5] of the same molecule?
The IC50 was > 100 µM.

And the IC90 ([6]; mean ± SD)?
The IC90 was > 100 µM.

What about the IC50 [6, 7] of the same molecule?
The IC50 was > 100 µM.

With `Brc1ccc(-n2cc(-c3ccccc3)nn2)cc1` [Triazole 1c, 1-(4-Bromophenyl)-4-phenyl-1H-1,2,3-triazole] as the molecule, how does the CC50 at 72 h [1] read?
Its CC50 at 72 h is > 500 µM.

And the IC50 [5]?
The IC50 was > 100 µM.

And the IC90 ([6]; mean ± SD)?
Its IC90 is > 100 µM.

What about the IC50 [6, 7] of the same molecule?
Its IC50 is > 100 µM.

What does the source list for `c1ccc(Cn2cc(-c3ccccc3)nn2)cc1` [Triazole 1e, 1-Benzyl-4-phenyl-1H-1,2,3-triazole]?
CC50 at 72 h [1]: > 500 µM; Intracellular Amastigotes SI [5]: >6; IC50 [5]: 83.2 ± 2.27 µM; IC90 ([6]; mean ± SD): > 100 µM; IC50 [6, 7]: > 100 µM

For `OC1(c2cn(-c3ccccc3)nn2)CCCCC1` [Triazole 1h, 1-(1-Phenyl-1H-1,2,3-triazole-4-yl)cyclohexan-1-ol], which CC50 at 72 h [1] is on record?
Its CC50 at 72 h is > 500 µM.

What about the IC50 [5] of the same molecule?
Its IC50 is > 100 µM.

What about the IC50 [6, 7] of the same molecule?
The IC50 was > 100 µM.

With `O=[N+]([O-])c1ccc(-n2cc(C3(O)CCCCC3)nn2)cc1` [Triazole 1i, 1-(1-(4-Nitrophenyl)-1H-1,2,3-triazole-4-yl)cyclohexan-1-ol] as the molecule, how does the CC50 at 72 h [1] read?
Its CC50 at 72 h is > 500 µM.

What about the IC50 [5] of the same molecule?
The IC50 was > 100 µM.

And the IC50 [6, 7]?
The IC50 was > 100 µM.

Which results are given for `COc1ccc(-n2cc(C3(O)CCCCC3)nn2)cc1` [Triazole 1j, 1-(1-(4-Methoxyphenyl)-1H-1,2,3-triazole-4-yl)cyclohexan-1-ol]?
CC50 at 72 h [1]: > 500 µM; IC50 [5]: > 100 µM; IC50 [6, 7]: > 100 µM

Which CC50 at 72 h [1] does the source give for `Cc1ccccc1-n1cc(C2(O)CCCCC2)nn1` [Triazole 1k, 1-(1-(o-Tolyl)-1H-1,2,3-triazole-4-yl)cyclohexan-1-ol] here?
Its CC50 at 72 h is > 500 µM.

And the melting point?
Its melting point is 201 to 203 °C.

And the IC50 [5]?
Its IC50 is > 100 µM.

And the IC50 [6, 7]?
The IC50 was > 100 µM.

Which results are given for `O=C(OCc1cn(-c2ccccc2Cl)nn1)c1ccccc1` [Triazole 1l, (1-(2-Chlorophenyl)-1H-1,2,3-triazole-4-yl)methyl benzoate]?
CC50 at 72 h [1]: 236 ± 17.9 µM; Intracellular Amastigotes SI [5]: 3.03; IC50 [5]: 77.9 ± 2 µM; IC90 [5]: > 100 µM; Trypomastigotes SI ([6]; SI = CC50 of VERO cells/IC50 of trypomastigotes): 2.94; IC90 ([6]; mean ± SD): > 100 µM; IC50 [6, 7]: 80.4 ± 3.56 µM

With `Cc1ccccc1-n1cc(COC(=O)c2ccccc2)nn1` [Triazole 1m, (1-(o-Tolyl)-1H-1,2,3-triazole-4-yl)methyl benzoate] as the molecule, how does the CC50 at 72 h [1] read?
Its CC50 at 72 h is > 500 µM.

And the IC50 [5]?
Its IC50 is > 100 µM.

And the IC50 [6, 7]?
Its IC50 is > 100 µM.

Which results are given for `COc1ccc(-n2cc(CO)nn2)cc1` [Triazole 1n, (1-(4-Methoxyphenyl)-1H-1,2,3-triazole-4-yl)methanol]?
CC50 at 72 h [1]: > 500 µM; IC50 [5]: > 100 µM; IC50 [6, 7]: > 100 µM
